# Key:
# [1] = test system: Patients with Primary or Recurrent Pterygium; experiment: Phase 2a clinical trial in pterygium patients: ocular symptom and PSLQ questionnaire scores; type: in vivo, human
# From the text: 2-HP-β-CD Formulation I was used as vehicle.
# A trend of effects also remained after the stop of treatment at weeks 8, 16, and 24. The other questions didn't generate statistically significant effects.
# These ocular symptoms are often observed in MGD patients. Scores of these symptoms were graded by patients as part of PSLQ questionnaires.
# [2] = Aqueous solution at 37° C.; concentration of CDs 1.0 × 10^−2M; cited from earlier work
compound,measurement,setting,value
2-Hydroxypropyl-beta-cyclodextrin [Formulation 2-HP-β-CD],"PSLQ Overall Average Score, Baseline Mean (SD)","[1]; Baseline, Modified Intent-to-Treat Population, N = 23",0.70 (0.66)
same,"PSLQ Average Ocular Symptom Score, Baseline Mean (SD)","[1]; Baseline, mITT, N = 23",0.88 (0.81)
same,"PSLQ Average Quality of Life Impact Score, Baseline Mean (SD)","[1]; Baseline, mITT, N = 23",0.57 (0.92)
same,"PSLQ Average Vision-Related Functioning Score, Baseline Mean (SD)","[1]; Baseline, mITT, N = 23",0.57 (0.80)
same,"PSLQ Average Vision-Related Functioning Score, Change from Baseline Mean (SD)","[1]; Week 2, mITT, N = 23",−0.27 (0.65)
same,"PSLQ Average Vision-Related Functioning Score, Change from Baseline Mean (SD)","[1]; Week 4, mITT, N = 23",−0.48 (0.65)
same,"PSLQ Average Vision-Related Functioning Score, Change from Baseline Mean (SD)","[1]; Week 8, mITT, N = 23",−0.43 (0.62)
same,"PSLQ Average Vision-Related Functioning Score, Change from Baseline Mean (SD)","[1]; Week 16, mITT, N = 23",−0.23 (0.56)
same,"PSLQ Average Vision-Related Functioning Score, Change from Baseline Mean (SD)","[1]; Week 24, mITT, N = 23",−0.11 (1.1)
same,PSLQ scores compared to the baseline (in words),"[1]; human, in vivo",significant improvements
"OC[C@H]1O[C@@H]2O[C@H]3[C@H](O)[C@@H](O)[C@@H](O[C@H]4[C@H](O)[C@@H](O)[C@@H](O[C@H]5[C@H](O)[C@@H](O)[C@@H](O[C@H]6[C@H](O)[C@@H](O)[C@@H](O[C@H]7[C@H](O)[C@@H](O)[C@@H](O[C@H]1[C@H](O)[C@H]2O)O[C@@H]7CO)O[C@@H]6CO)O[C@@H]5CO)O[C@@H]4CO)O[C@@H]3CO [Alpha-CD, alpha-cyclodextrin]",Increase in Absorbance (600 nm) Due to Cholesterol Dissolved by CDs,[2],zero
"OC[C@H]1O[C@@H]2O[C@H]3[C@H](O)[C@@H](O)[C@@H](O[C@H]4[C@H](O)[C@@H](O)[C@@H](O[C@H]5[C@H](O)[C@@H](O)[C@@H](O[C@H]6[C@H](O)[C@@H](O)[C@@H](O[C@H]7[C@H](O)[C@@H](O)[C@@H](O[C@H]8[C@H](O)[C@@H](O)[C@@H](O[C@H]9[C@H](O)[C@@H](O)[C@@H](O[C@H]1[C@H](O)[C@H]2O)O[C@@H]9CO)O[C@@H]8CO)O[C@@H]7CO)O[C@@H]6CO)O[C@@H]5CO)O[C@@H]4CO)O[C@@H]3CO [Gamma-CD, gamma-cyclodextrin]",Increase in Absorbance (600 nm) Due to Cholesterol Dissolved by CDs,[2],zero
"COCC1O[C@@H]2O[C@@H]3C(COC)O[C@H](O[C@@H]4C(COC)O[C@H](O[C@@H]5C(COC)O[C@H](O[C@@H]6C(COC)O[C@H](O[C@@H]7C(COC)O[C@H](O[C@@H]8C(COC)O[C@H](O[C@H]1C(O)C2OC)C(OC)C8O)C(OC)C7O)C(OC)C6O)C(OC)C5O)C(OC)C4O)C(OC)C3O (stereo partly drawn) [DOM-beta-CD, 2,6-Di-O-methyl-beta-cyclodextrin]",Increase in Absorbance (600 nm) Due to Cholesterol Dissolved by CDs,[2],a remarkable increase in absorbance
"COC(=O)c1ccc2c(c1)NC(=O)/C2=C(\Nc1ccc(N(C)C(=O)CN2CCN(C)CC2)cc1)c1ccccc1 [Nintedanib 0.2%, nintedanib, reference compound]","PSLQ scores, Nintedanib 0.2% vs Vehicle (in words)",[1]; pterygium patients with dry eye condition,no statistically significant differences
